Active and inactive are the calls of the source. The calls are words filed in the database; no cut-off is given here.
Experiments:
[1] = biological target: T1, Peroxisome proliferator-activated receptor gamma (Homo sapiens) (UniProt P37231); assay: Covalent binding affinity to apo PPARgamma ligand binding domain (unknown origin) assessed as adduct formation measured within few minutes by ESI-MS analysis
T1 sequence (whole entry): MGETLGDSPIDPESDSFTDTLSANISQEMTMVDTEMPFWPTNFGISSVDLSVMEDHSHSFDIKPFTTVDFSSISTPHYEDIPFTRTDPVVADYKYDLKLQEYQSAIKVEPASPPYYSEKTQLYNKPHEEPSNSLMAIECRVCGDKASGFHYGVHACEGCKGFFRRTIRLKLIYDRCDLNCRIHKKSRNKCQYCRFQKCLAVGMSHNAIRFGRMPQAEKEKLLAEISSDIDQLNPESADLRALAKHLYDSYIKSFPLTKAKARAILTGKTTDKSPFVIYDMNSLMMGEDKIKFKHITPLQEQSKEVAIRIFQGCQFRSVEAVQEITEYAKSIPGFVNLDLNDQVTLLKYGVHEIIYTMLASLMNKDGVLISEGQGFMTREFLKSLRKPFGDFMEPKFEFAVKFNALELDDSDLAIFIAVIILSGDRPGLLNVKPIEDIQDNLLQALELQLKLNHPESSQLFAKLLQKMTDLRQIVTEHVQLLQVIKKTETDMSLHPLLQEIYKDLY

[2] = biological target: T1, Peroxisome proliferator-activated receptor gamma (Homo sapiens); assay: Covalent binding affinity to apo PPARgamma ligand binding domain (unknown origin) assessed as adduct formation incubated for 24 hrs by ESI-MS analysis

SMILES	Activity [1]	Activity [2]
O=C(Nc1ccccc1)c1cc([N+](=O)[O-])ccc1Cl	Active	
CCCOc1ccc(NC(=O)C#Cc2ccccc2)cc1CNC(=O)c1ccc(-c2ncccn2)cc1		Active
COc1ccc(NC(=O)C#Cc2ccccc2)cc1CNC(=O)c1ccc(N2CCCCC2)cc1		Active

Reference: ChEMBL document CHEMBL5143632, “Arylalkynyl amide-type peroxisome proliferator-activated receptor γ (PPARγ)-selective antagonists covalently bind to the PPARγ ligand binding domain with a unique binding mode” (Bioorg Med Chem Lett, 2022)
